Laboratory results from patent US12209087B2, “AKT1 modulators” (Alterome Therapeutics, Inc., priority 2022, dated 2025).

biological target: T1, full length AKT E17K (Homo sapiens, UniProt P31749, E17K); experiment: NanoBRET Target Engagement (TE) Assay; format: cell-based; conditions: competitive displacement of tracer in cells, read-out: AKT1 E17K IC50
T1 construct: host or cells: HEK-293 (ATCC CRL-1573)
In short: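 Compound and tracer incubated 2 h before luminescence at donor 450 nm and acceptor 600 nm, with extracellular signal inhibited. EC50 by sigmoidal variable-slope regression.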

T1 sequence (P31749 whole entry E17K): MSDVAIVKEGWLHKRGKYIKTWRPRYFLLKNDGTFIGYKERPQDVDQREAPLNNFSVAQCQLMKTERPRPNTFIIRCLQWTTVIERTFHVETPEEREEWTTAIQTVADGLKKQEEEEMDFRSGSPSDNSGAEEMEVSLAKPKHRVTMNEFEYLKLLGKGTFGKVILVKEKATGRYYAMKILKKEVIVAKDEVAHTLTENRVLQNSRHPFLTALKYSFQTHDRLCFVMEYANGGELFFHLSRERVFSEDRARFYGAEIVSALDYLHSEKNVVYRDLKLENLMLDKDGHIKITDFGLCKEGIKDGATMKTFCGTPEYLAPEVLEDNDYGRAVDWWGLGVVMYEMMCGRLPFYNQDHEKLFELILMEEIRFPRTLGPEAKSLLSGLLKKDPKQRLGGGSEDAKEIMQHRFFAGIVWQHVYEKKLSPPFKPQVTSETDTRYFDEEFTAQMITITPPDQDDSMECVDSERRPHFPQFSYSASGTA

| IC50 | SMILES |
| --- | --- |
| < 15 nM | CN(c1ccnc(C#N)n1)C1CCN(Cc2ccc(-n3c(-c4cccnc4N)nc4ccc(-c5ccc(F)cc5)nc43)cc2)CC1 [Example 541, 4-((1-(4-(2-(2-aminopyridin-3-yl)-5-(4-fluorophenyl)-3H-imidazo[4,5-b]pyridin-3-yl)benzyl)piperidin-4-yl)(methyl)amino)pyrimidine-2-carbonitrile] |
| < 15 nM | Cc1ccnc(-c2ccc3nc(-c4cccnc4N)n(-c4ccc(CN5CCC(Nc6ccnc(C#N)n6)CC5)cc4)c3n2)c1 [Example 596, 4-((1-(4-(2-(2-Aminopyridin-3-yl)-5-(4-methylpyridin-2-yl)-3H-imidazo[4,5-b]pyridin-3-yl)benzyl)piperidin-4-yl)amino)pyrimidine-2-carbonitrile] |
| < 15 nM | Cn1ccc(-c2ccc3nc(-c4cccnc4N)n(-c4ccc(CN5CCC(Nc6ccnc(C#N)n6)CC5)cc4)c3n2)cc1=O [Example 359, 4-((1-(4-(2-(2-aminopyridin-3-yl)-5-(1-methyl-2-oxo-1,2-dihydropyridin-4-yl)-3H-imidazo[4,5-b]pyridin-3-yl)benzyl)piperidin-4-yl)amino)pyrimidine-2-carbonitrile] |
| < 15 nM | N#Cc1nccc(NC2CCN(Cc3ccc(-n4c(-c5cccnc5N)nc5ccc(-c6cccnc6)nc54)cc3)CC2)n1 [Example 431, 4-((1-(4-(2-(2-Aminopyridin-3-yl)-5-(pyridin-3-yl)-3H-imidazo[4,5-b]pyridin-3-yl)benzyl)piperidin-4-yl)amino)pyrimidine-2-carbonitrile] |
| 15 to 60 nM | N#Cc1ncnc(NC2CCN(Cc3ccc(-n4c(-c5cccnc5N)nc5ccc(-c6ccc(Cl)cc6)nc54)cc3)CC2)n1 [Example 382, 4-((1-(4-(2-(2-Aminopyridin-3-yl)-5-(4-chlorophenyl)-3H-imidazo[4,5-b]pyridin-3-yl)benzyl)piperidin-4-yl)amino)-1,3,5-triazine-2-carbonitrile] |

same assay, conditions: competitive tracer displacement in living cells, read-out: AKT1 E17K IC50

| IC50 | SMILES |
| --- | --- |
| 60 to 600 nM | C[C@H]1CN(Cc2ccc(-n3c(-c4cccnc4N)nc4ccc(-c5ccccc5)nc43)cc2)CCN1c1cc(C#N)ncn1 [Example 208, (S)-6-(4-(4-(2-(2-Aminopyridin-3-yl)-5-phenyl-3H-imidazo[4,5-b]pyridin-3-yl)benzyl)-2-methylpiperazin-1-yl)pyrimidine-4-carbonitrile] |
| < 15 nM | N#Cc1ncnc(N2CCN(Cc3ccc(-n4c(-c5cccnc5N)nc5ccc(-c6ccccc6Cl)nc54)cc3)CC2)n1 [Example 304, 4-(4-(4-(2-(2-Aminopyridin-3-yl)-5-(2-chlorophenyl)-3H-imidazo[4,5-b]pyridin-3-yl)benzyl)piperazin-1-yl)-1,3,5-triazine-2-carbonitrile] |
| 15 to 60 nM | N#Cc1cc(N2CCN(Cc3ccc(-n4c(-c5cccnc5N)nc5ccc(-c6ccccc6)nc54)cc3)CC2)cnn1 [Example 159, 5-(4-(4-(2-(2-Aminopyridin-3-yl)-5-phenyl-3H-imidazo[4,5-b]pyridin-3-yl)benzyl)piperazin-1-yl)pyridazine-3-carbonitrile] |
| 600 to 10000 nM | N#Cc1ccncc1C(=O)N1CCN(Cc2ccc(-n3c(-c4cccnc4N)nc4ccc(-c5ccccc5)nc43)cc2)CC1 [Example 145, 3-(4-(4-(2-(2-Aminopyridin-3-yl)-5-phenyl-3H-imidazo[4,5-b]pyridin-3-yl)benzyl)piperazine-1-carbonyl)isonicotinonitrile] |

The next lines start with the compound.

| SMILES | IC50 |
| --- | --- |
| N#Cc1cncc(NC2CCN(Cc3ccc(-n4c(-c5cccnc5N)nc5cccnc54)cc3)CC2)c1 [Example 74, 5-((1-(4-(2-(2-Aminopyridin-3-yl)-3H-imidazo[4,5-b]pyridin-3-yl)benzyl)piperidin-4-yl)amino)nicotinonitrile] | 600 to 10000 nM |
| N#Cc1nccc(NC2CCN(Cc3ccc(-n4c(-c5cccnc5N)nc5ccc(-c6cccc(=O)[nH]6)nc54)cc3)CC2)n1 [Example 267, 4-((1-(4-(2-(2-Aminopyridin-3-yl)-5-(6-oxo-1,6-dihydropyridin-2-yl)-3H-imidazo[4,5-b]pyridin-3-yl)benzyl)piperidin-4-yl)amino)pyrimidine-2-carbonitrile] | < 15 nM |
